According to patent US5789186A, “Marker for cerebral apoplexy” (Oriental Yeast Co., Ltd., priority 1995, dated 1998):
Like-named read-outs stand apart in the source and are kept apart here.

Key:
Format in all cases: biochemical
[1] = biological target: PGAM-B (Homo sapiens, UniProt P18669); test: Effect of potassium tetrathionate on PGAM-B standard, automatic assay method (NADH decrease rate assay); details: for activity at 1900 µM / activity at 3800 µM / activity at 7600 µM: 5 min, PGAM-B standard (pooled serum base), 5 min reaction, read-out: PGAM-B activity relative to 0 mM potassium tetrathionate (=100); for activity at 1900 µM: final concentration 1.9 mM; for activity at 3800 µM: final concentration 3.8 mM; for activity at 7600 µM: final concentration 7.6 mM
Description: (§1) Namely, 3-phosphoglycerate (Glycerate-3-P) is converted into 2-phosphoglycerate (Glycerate-2-P) by PGAM-B in the presence of 2,3-bisphosphoglycerate (Glycerate-2,3-P2) and the resulting product is converted into PEP and H2 O by enolase. Then, PEP is converted into pyruvate and ATP by pyruvate kinase (PK) in the presence of ADP, and lactate dehydrogenase (LDH) is acted on pyruvate thus obtained in the presence of NADH to conduct the rate assay of the decrease of NADH.
(§2) Effect of potassium tetrathionate on PGAM-B and PGAM-M was examined by an automatic assay method.
(§3) Standard preparations of the B-type and M-type isozymes (pooled serum base) were used as samples. These were diluted 1/1 to 1/8 with physiological saline to serve as samples. To the thus prepared samples were added potassium tetrathionate of various concentrations. After the reaction was carried out for 5 minutes, the quantity of the B-type and M-type PGAMs were determined by the automatic assay method.
(§4) The quantity of PGAM-B and PGAM-M were respectively determined using the reagent of Example 2 by the automatic assay method, and the results shown in Table 2 below were obtained.
(§5) Potassium tetrathionate (molecular weight of 302.4) was added to and dissolved in the PGAM activity assay reagent (R-1) so as to give a concentration of 2.25 mM (final concentration of 1.9 mM) (15 mg of potassium tetrathionate was dissolved in 22 ml of the R-1 reagent) and the M-type isozyme was inactivated to prepare a B-type PGAM activity assay reagent.
(§6) Five μl of a serum sample was combined with 250 μl of the solution of Reagent 1 (R-1) in which potassium tetrathionate was dissolved, and the mixture was allowed to stand for 5 minutes. During this period, the M-type (and MB-type) PGAM was inactivated and inhibited, and then the B-type PGAM activity was determined using Reagent 2 (R-2).
(§7) The reaction was initiated (substrate start) by adding 41 μl of Reagent 2 (R-2) because it contained glycerate-3-phosphate (substrate). The assay was started about 1.5 minutes after the addition of Reagent 2.
(§8) The assay was carried out using Hitachi 7150 model automatic analyzer with setting the assay code to RATE-A: 32-39 and the measuring temperature to 37° C. The decrease in absorbance A 340 nm associated with the decrease of NADH was measured for about 1.5 minutes. It should be noted that the assay was carried out at the secondary wavelength of 405 nm.
(§9) One unit of the enzyme (1 U: 1 unit) was defined as the amount of the enzyme that reduces 1 μmol of NADH for 1 minute at 37° C. Actual measured values were calculated by multiplying the rate assay value by a calibrating factor (K FACTOR).

[2] = biological target: PGAM-M (Homo sapiens, UniProt P15259); test: Effect of potassium tetrathionate on PGAM-M standard, automatic assay method (NADH decrease rate assay)
Description: as §1, §2, §3, §4, §5, §6, §7, §8, §9

[3] = system: B-type isozyme (PGAM-BB); test: Inhibition test using purified PGAM isozymes, B-type; details: treatment with tetrathionic acid as PGAM inhibitor
Description: (§10) The assay method according to the present invention comprises treating a blood sample such as serum with a PGAM inhibitor to inactivate a specific isozyme, and then determining residual PGAM activity. For example, when tetrathionic acid is used as the PGAM inhibitor, almost 100% of M-type isozyme activity and about 50% of MB-type isozyme activity are lost, while B-type isozyme activity is hardly lost. Therefore, the B-type isozyme can be separately quantified by adding tetrathionic acid to serum to inactivate the M-type isozyme and measuring residual PGAM activity.
(§11) Incidently, according to the inhibition test using purified PGAM isozymes, only 50% of MB-type isozyme activity is lost by the treatment with tetrathionic acid, and 50% of the activity remains. However, since most of PGAM activities in normal serum and cerebral tissues are attributed to the B-type isozyme, residual activity of the MB-type isozyme can be practically disregarded in the case of diagnosis of cerebral apoplexy in a biological sample.

[4] = system: M-type isozyme (PGAM-MM); test: Inhibition test using purified PGAM isozymes, M-type; details: treatment with tetrathionic acid as PGAM inhibitor
Description: as §10, §11

[5] = dilution rate 1/1 (control 183 U/L)
[6] = dilution rate 1/2 (control 91 U/L)
[7] = dilution rate 1/4 (control 46 U/L)
[8] = dilution rate 1/8 (control 22 U/L)

Sequence of PGAM-M (P15259 whole entry): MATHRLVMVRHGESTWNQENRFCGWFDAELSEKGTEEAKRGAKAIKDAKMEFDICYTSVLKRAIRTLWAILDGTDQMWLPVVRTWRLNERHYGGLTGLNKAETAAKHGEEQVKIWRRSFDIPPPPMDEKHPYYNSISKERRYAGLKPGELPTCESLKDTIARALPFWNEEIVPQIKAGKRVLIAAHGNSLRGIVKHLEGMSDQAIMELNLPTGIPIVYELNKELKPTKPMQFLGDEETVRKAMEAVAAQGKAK
Sequence of PGAM-B (P18669 whole entry): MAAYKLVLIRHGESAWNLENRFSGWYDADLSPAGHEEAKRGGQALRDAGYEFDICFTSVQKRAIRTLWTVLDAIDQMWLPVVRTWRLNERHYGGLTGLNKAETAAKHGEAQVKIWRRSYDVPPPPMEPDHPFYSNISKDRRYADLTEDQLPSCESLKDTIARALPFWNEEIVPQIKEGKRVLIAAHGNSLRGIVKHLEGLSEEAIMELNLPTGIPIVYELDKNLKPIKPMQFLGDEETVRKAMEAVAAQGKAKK

Row | SMILES | activity at 1900 µM [1, 5] [%] | activity at 3800 µM [1, 5] [%] | activity at 7600 µM [1, 5] [%] | activity at 1900 µM [1, 6] [%] | activity at 3800 µM [1, 6] [%] | activity at 7600 µM [1, 6] [%] | activity at 1900 µM [1, 7] [%] | activity at 3800 µM [1, 7] [%] | activity at 7600 µM [1, 7] [%] | activity at 1900 µM [1, 8] [%] | activity at 3800 µM [1, 8] [%] | activity at 7600 µM [1, 8] [%] | Effect on the B-type isozyme (in words) ([1]; summary of Table 2) | activity at 1900 µM ([2]; 5 min, PGAM-M standard (pooled serum base), dilution rate 1/8 (control 332 U/L), final concentration 1.9 mM, 5 min reaction, read-out: PGAM-M activity relative to 0 mM potassium tetrathionate (=100)) [%] | activity at 3800 µM ([2]; 5 min, PGAM-M standard (pooled serum base), dilution rate 1/8 (control 332 U/L), final concentration 3.8 mM, 5 min reaction, read-out: PGAM-M activity relative to 0 mM potassium tetrathionate (=100)) [%] | activity at 7600 µM ([2]; 5 min, PGAM-M standard (pooled serum base), dilution rate 1/8 (control 332 U/L), final concentration 7.6 mM, 5 min reaction, read-out: PGAM-M activity relative to 0 mM potassium tetrathionate (=100)) [%] | Effect on the M-type isozyme (in words) ([2]; summary of Table 2) | B-type isozyme activity lost (in words) [3] | M-type isozyme activity lost [4] [%]
1 | O=S(=O)([O-])SSS(=O)(=O)[O-].[K+].[K+] [potassium tetrathionate] | 98 | 92 | 81 | 98 | 91 | 80 | 97 | 86 | 59 | 93 | 93 | 75 | no effect was observed | 0 | 0 | 0 | specifically inactivated | – | –
2 | O=S(=O)(O)SSS(=O)(=O)O [tetrathionic acid] | – | – | – | – | – | – | – | – | – | – | – | – | – | – | – | – | – | hardly lost | ~100
